{"source": "paper PMC8854719", "about": "“Phase 1A/1B dose-escalation and -expansion study to evaluate the safety, pharmacokinetics, food effects and antitumor activity of pamiparib in advanced solid tumours” (British Journal of Cancer, 2021)", "system": "epithelial ovarian cancer (EOC)", "test": "Tumour response and PFS per RECIST v1.1, EOC efficacy-evaluable population", "format": "in vivo, human", "method": "Tumour response was evaluated by RECIST v1.1. For patients with ovarian cancer, tumour response was assessed per RECIST v1.1 and by Gynecologic Cancer Intergroup (GCIG) CA-125 criteria. Tumour response for patients with prostate cancer was assessed by Prostate Cancer Clinical Trials Working Group 2 (PCWG2) criteria. Objective response rate (ORR) was defined as the proportion of patients achieving a confirmed complete response (CR) or partial response (PR) on study treatment. Blood tumour antigens (e.g., carcinoembryonic antigen for colorectal cancer, CA-125 for ovarian cancer and prostate-specific antigen [PSA] for mCRPC) were assessed during screening, every 6 weeks after the first pamiparib dose in the first 12 months, and every 9 weeks thereafter.\nAnalyses of ORR (95% confidence interval [CI]) by investigator assessment were performed using predefined subgroups of the EOC population, including age group (<65 years versus ≥65 years), baseline ECOG performance status (0 versus 1), solid tumour stage (Stage III versus IV), BRCA/HRD status (germline BRCA mutation versus wild-type or unknown; germline or somatic BRCA mutation versus wild-type or unknown; HRD-positive versus negative or unknown), and platinum response status (platinum-sensitive versus platinum-resistant versus platinum-refractory).\nThe safety population comprised all patients in the dose-escalation and dose-expansion phases who received at least one dose of pamiparib (Supplementary Table S2). Patients in the safety analysis set for whom valid pamiparib PK parameters were estimated and for whom evaluable PD results were available represented the PK population and the PD population, respectively. The efficacy-evaluable population included patients in the safety analysis set who had at least one evaluable postbaseline tumour assessment or those who discontinued due to clinical disease progression or early death before tumour assessment could be performed. The EOC efficacy-evaluable population was a subset of the overall efficacy-evaluable population that included patients with EOC from both the dose-escalation and dose-expansion phases. Patients in the dose-expansion phase without measurable disease at baseline per RECIST v1.1 were excluded from the efficacy-evaluable population.\nDescriptive statistics were used to summarise all study data (see Supplemental Appendix). Progression-free survival (PFS) and event-free rates were estimated using the Kaplan–Meier method along with the corresponding 95% CI. Pharmacokinetic parameters were derived using standard non-compartmental methods with Phoenix WinNonlin Version 6.4 or higher (Pharsight Corp., Mountain View, California).", "key": {"[1]": {"conditions": "EOC evaluable for efficacy (N=60)"}, "[2]": {"conditions": "EOC, Total BID Dosage Group (n=51)"}}, "data": [{"molecule": "C[C@]12CCCN1CC1=NNC(=O)c3cc(F)cc4[nH]c2c1c34", "note": "[pamiparib]", "values": [{"measurement": "CR", "setting": "[1]", "value": 6.7, "unit": "%"}, {"measurement": "PR", "setting": "[1]", "value": 31.7, "unit": "%"}, {"measurement": "Event-free rate, 1 year", "setting": "EOC, Total (N=60)", "value": "41.0 (26.93-54.59) % (95% CI)"}, {"measurement": "Event-free rate, 2 years", "setting": "EOC, Total (N=60)", "value": "14.8 (5.46-28.41) % (95% CI)"}, {"measurement": "ORR, subgroup Age <65", "setting": "EOC, Total (N=60)", "value": "39.5 (24.98-55.59) [43/60] % (95% CI)"}, {"measurement": "ORR, subgroup Age ≥65", "setting": "EOC, Total (N=60)", "value": "35.3 (14.21-61.67) [17/60] % (95% CI)"}, {"measurement": "ORR, subgroup Baseline ECOG performance status 0", "setting": "EOC, Total (N=60)", "value": "45.8 (25.55-67.18) [24/60] % (95% CI)"}, {"measurement": "ORR, subgroup Baseline ECOG performance status ≥1", "setting": "EOC, Total (N=60)", "value": "33.3 (18.56-50.97) [36/60] % (95% CI)"}, {"measurement": "ORR, subgroup Germline BRCA status Mutant", "setting": "EOC, Total (N=60)", "value": "66.7 (40.99-86.66) [18/60] % (95% CI)"}, {"measurement": "ORR, subgroup Germline BRCA status Wild-type/Unknown", "setting": "EOC, Total (N=60)", "value": "26.2 (13.86-42.04) [42/60] % (95% CI)"}, {"measurement": "ORR, subgroup Germline or somatic BRCA status Mutant", "setting": "EOC, Total (N=60)", "value": "61.3 (42.19-78.15) [31/60] % (95% CI)"}, {"measurement": "ORR, subgroup Germline or somatic BRCA status Wild-type/Unknown", "setting": "EOC, Total (N=60)", "value": "13.8 (3.89-31.66) [29/60] % (95% CI)"}, {"measurement": "ORR, subgroup HRD status Negative/Unknown", "setting": "EOC, Total (N=60)", "value": "15.4 (4.36-34.87) [26/60] % (95% CI)"}, {"measurement": "ORR, subgroup HRD status Positive", "setting": "EOC, Total (N=60)", "value": "55.9 (37.89-72.81) [34/60] % (95% CI)"}, {"measurement": "ORR, subgroup Platinum-sensitivity status Refractory", "setting": "EOC, Total (N=60)", "value": "8.3 (0.21-38.48) [12/60] % (95% CI)"}, {"measurement": "ORR, subgroup Platinum-sensitivity status Resistant", "setting": "EOC, Total (N=60)", "value": "16.7 (4.74-37.38) [24/60] % (95% CI)"}, {"measurement": "ORR, subgroup Platinum-sensitivity status Sensitive", "setting": "EOC, Total (N=60)", "value": "75.0 (53.29-90.23) [24/60] % (95% CI)"}, {"measurement": "ORR, subgroup Solid tumor stage 3", "setting": "EOC, Total (N=60)", "value": "45.5 (28.11-63.65) [33/60] % (95% CI)"}, {"measurement": "ORR, subgroup Solid tumor stage 4", "setting": "EOC, Total (N=60)", "value": "26.1 (10.23-48.41) [23/60] % (95% CI)"}, {"measurement": "PFS censored: No disease progression or death", "setting": "EOC, Total (N=60)", "value": "17 (28.3) n (%)"}, {"measurement": "PFS censored: No postbaseline assessment", "setting": "EOC, Total (N=60)", "value": "2 (3.3) n (%)"}, {"measurement": "PFS censored: ≥2 consecutive missed assessments", "setting": "EOC, Total (N=60)", "value": "2 (3.3) n (%)"}, {"measurement": "PFS events: Death", "setting": "EOC, Total (N=60)", "value": "9 (15.0) n (%)"}, {"measurement": "PFS events: Disease progression", "setting": "EOC, Total (N=60)", "value": "30 (50.0) n (%)"}, {"measurement": "PFS: Censored", "setting": "EOC, Total (N=60)", "value": "21 (35.0) n (%)"}, {"measurement": "PFS: Events", "setting": "EOC, Total (N=60)", "value": "39 (65.0) n (%)"}, {"measurement": "Progression-Free Survival, Median", "setting": "EOC, Total (N=60)", "value": "8.3 (5.45-13.67) months (95% CI)"}, {"measurement": "Event-free rate, 1 year", "setting": "[2]", "value": "45.6 (29.51-60.25) % (95% CI)"}, {"measurement": "Event-free rate, 2 years", "setting": "[2]", "value": "16.4 (5.98-31.33) % (95% CI)"}, {"measurement": "ORR, subgroup Age <65", "setting": "[2]", "value": "42.1 (26.31-59.18) [38/51] % (95% CI)"}, {"measurement": "ORR, subgroup Age ≥65", "setting": "[2]", "value": "38.5 (13.86-68.42) [13/51] % (95% CI)"}, {"measurement": "ORR, subgroup Baseline ECOG performance status 0", "setting": "[2]", "value": "47.8 (26.82-69.41) [23/51] % (95% CI)"}, {"measurement": "ORR, subgroup Baseline ECOG performance status ≥1", "setting": "[2]", "value": "35.7 (18.64-55.93) [28/51] % (95% CI)"}, {"measurement": "ORR, subgroup Germline BRCA status Mutant", "setting": "[2]", "value": "73.3 (44.90-92.21) [15/51] % (95% CI)"}, {"measurement": "ORR, subgroup Germline BRCA status Wild-type/Unknown", "setting": "[2]", "value": "27.8 (14.20-45.19) [36/51] % (95% CI)"}, {"measurement": "ORR, subgroup Germline or somatic BRCA status Mutant", "setting": "[2]", "value": "64.3 (44.07-81.36) [28/51] % (95% CI)"}, {"measurement": "ORR, subgroup Germline or somatic BRCA status Wild-type/Unknown", "setting": "[2]", "value": "13.0 (2.78-33.59) [23/51] % (95% CI)"}, {"measurement": "ORR, subgroup HRD status Negative/Unknown", "setting": "[2]", "value": "14.3 (3.05-36.34) [21/51] % (95% CI)"}, {"measurement": "ORR, subgroup HRD status Positive", "setting": "[2]", "value": "60.0 (40.60-77.34) [30/51] % (95% CI)"}, {"measurement": "ORR, subgroup Platinum-sensitivity status Refractory", "setting": "[2]", "value": "9.1 (0.23-41.28) [11/51] % (95% CI)"}, {"measurement": "ORR, subgroup Platinum-sensitivity status Resistant", "setting": "[2]", "value": "21.1 (6.05-45.57) [19/51] % (95% CI)"}, {"measurement": "ORR, subgroup Platinum-sensitivity status Sensitive", "setting": "[2]", "value": "76.2 (52.83-91.78) [21/51] % (95% CI)"}, {"measurement": "ORR, subgroup Solid tumor stage 3", "setting": "[2]", "value": "53.6 (33.87-72.49) [28/51] % (95% CI)"}, {"measurement": "ORR, subgroup Solid tumor stage 4", "setting": "[2]", "value": "23.8 (8.22-47.17) [21/51] % (95% CI)"}, {"measurement": "PFS censored: No disease progression or death", "setting": "[2]", "value": "15 (29.4) n (%)"}, {"measurement": "PFS censored: No postbaseline assessment", "setting": "[2]", "value": "2 (3.9) n (%)"}, {"measurement": "PFS censored: ≥2 consecutive missed assessments", "setting": "[2]", "value": "2 (3.9) n (%)"}, {"measurement": "PFS events: Death", "setting": "[2]", "value": "6 (11.8) n (%)"}, {"measurement": "PFS events: Disease progression", "setting": "[2]", "value": "26 (51.0) n (%)"}, {"measurement": "PFS: Censored", "setting": "[2]", "value": "19 (37.3) n (%)"}, {"measurement": "PFS: Events", "setting": "[2]", "value": "32 (62.7) n (%)"}, {"measurement": "Progression-Free Survival, Median", "setting": "[2]", "value": "9.9 (5.49-14.62) months (95% CI)"}, {"measurement": "Best overall response: Complete response", "setting": "EOC, Total BID and QD (N=60)", "value": "4 (6.7) n (%)"}, {"measurement": "Best overall response: Not assessed", "setting": "EOC, Total BID and QD (N=60)", "value": "3 (5.0) n (%)"}]}]}
